Paper PMC4744546 (Pharmaceutical research, 2015)
Where two headings read alike, the source gives them in different places. One block for each compound: values may come before it.

What was measured:
[1] = assay type: in vivo, FVB wild-type mice
[2] = Pharmacokinetic study of oral resveratrol with or without curcumin in Bcrp1; assay type: in vivo, Bcrp1 (−/−) mice (FVB background); conditions: for Cmax / Tmax / half-life: FVB, mouse, whole blood, po, 20 mg/kg, oral resveratrol 20mg/kg; for Cmax: blood
[3] = humans; ref [16]; cited from earlier work
BCRP [4] = conditions: oral sulfasalazine, curcumin pretreatment vs none, ref [37]; cited from earlier work
BCRP [5] = molecular target: T1, BCRP (Homo sapiens, UniProt Q9UNQ0); assay: Effect of curcumin on BCRP-mediated efflux; assay type: cell-based; conditions: UGT1A9-overexpressing HeLa cells
T1 sequence (Q9UNQ0 1-655): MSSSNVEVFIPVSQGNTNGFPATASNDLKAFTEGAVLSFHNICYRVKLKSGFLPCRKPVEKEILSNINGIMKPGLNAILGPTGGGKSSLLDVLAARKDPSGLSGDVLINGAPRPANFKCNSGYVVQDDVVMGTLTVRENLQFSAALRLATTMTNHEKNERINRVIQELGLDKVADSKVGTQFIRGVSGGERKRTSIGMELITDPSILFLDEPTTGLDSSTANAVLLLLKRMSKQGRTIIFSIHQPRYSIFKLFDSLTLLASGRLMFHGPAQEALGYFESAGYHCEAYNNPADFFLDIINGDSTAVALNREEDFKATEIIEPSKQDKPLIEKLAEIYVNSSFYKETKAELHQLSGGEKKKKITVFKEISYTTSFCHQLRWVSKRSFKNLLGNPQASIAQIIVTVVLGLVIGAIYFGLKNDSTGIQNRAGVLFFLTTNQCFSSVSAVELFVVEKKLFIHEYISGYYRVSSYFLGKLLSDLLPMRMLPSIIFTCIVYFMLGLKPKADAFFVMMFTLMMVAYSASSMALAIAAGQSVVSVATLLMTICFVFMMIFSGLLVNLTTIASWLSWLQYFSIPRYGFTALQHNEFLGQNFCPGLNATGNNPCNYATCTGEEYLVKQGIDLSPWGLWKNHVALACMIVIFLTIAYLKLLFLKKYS

human MRP2 = human MRP2 (Homo sapiens, UniProt Q92887); assay: Effect of curcumin on MRP2-mediated efflux; assay type: cell-based; conditions: MRP2-overexpressing MDCK II-UGT1A1 cells
[6] = tested on: human MRP2-overexpressing MDCK II-UGT1A1 cells; assay: Effect of curcumin on fmet of resveratrol conjugates in MDCK II cells; assay type: cell-based; conditions: 4 h
colon cancer cell lines = conditions: ref [18]; cited from earlier work
[7] = Characterization of resveratrol metabolites in pooled human liver S9 fraction; assay type: in vitro ADME
[8] = FVB, mouse, whole blood, po, 20 mg/kg
[9] = WT mice with curcumin vs without, resveratrol 20mg/kg oral
[10] = curcumin 50nM, resveratrol […], 4 h, p<0.01
[11] = curcumin 50nM, resveratrol […], 4 h, p<0.05

Sequence of human MRP2 (Q92887 whole entry): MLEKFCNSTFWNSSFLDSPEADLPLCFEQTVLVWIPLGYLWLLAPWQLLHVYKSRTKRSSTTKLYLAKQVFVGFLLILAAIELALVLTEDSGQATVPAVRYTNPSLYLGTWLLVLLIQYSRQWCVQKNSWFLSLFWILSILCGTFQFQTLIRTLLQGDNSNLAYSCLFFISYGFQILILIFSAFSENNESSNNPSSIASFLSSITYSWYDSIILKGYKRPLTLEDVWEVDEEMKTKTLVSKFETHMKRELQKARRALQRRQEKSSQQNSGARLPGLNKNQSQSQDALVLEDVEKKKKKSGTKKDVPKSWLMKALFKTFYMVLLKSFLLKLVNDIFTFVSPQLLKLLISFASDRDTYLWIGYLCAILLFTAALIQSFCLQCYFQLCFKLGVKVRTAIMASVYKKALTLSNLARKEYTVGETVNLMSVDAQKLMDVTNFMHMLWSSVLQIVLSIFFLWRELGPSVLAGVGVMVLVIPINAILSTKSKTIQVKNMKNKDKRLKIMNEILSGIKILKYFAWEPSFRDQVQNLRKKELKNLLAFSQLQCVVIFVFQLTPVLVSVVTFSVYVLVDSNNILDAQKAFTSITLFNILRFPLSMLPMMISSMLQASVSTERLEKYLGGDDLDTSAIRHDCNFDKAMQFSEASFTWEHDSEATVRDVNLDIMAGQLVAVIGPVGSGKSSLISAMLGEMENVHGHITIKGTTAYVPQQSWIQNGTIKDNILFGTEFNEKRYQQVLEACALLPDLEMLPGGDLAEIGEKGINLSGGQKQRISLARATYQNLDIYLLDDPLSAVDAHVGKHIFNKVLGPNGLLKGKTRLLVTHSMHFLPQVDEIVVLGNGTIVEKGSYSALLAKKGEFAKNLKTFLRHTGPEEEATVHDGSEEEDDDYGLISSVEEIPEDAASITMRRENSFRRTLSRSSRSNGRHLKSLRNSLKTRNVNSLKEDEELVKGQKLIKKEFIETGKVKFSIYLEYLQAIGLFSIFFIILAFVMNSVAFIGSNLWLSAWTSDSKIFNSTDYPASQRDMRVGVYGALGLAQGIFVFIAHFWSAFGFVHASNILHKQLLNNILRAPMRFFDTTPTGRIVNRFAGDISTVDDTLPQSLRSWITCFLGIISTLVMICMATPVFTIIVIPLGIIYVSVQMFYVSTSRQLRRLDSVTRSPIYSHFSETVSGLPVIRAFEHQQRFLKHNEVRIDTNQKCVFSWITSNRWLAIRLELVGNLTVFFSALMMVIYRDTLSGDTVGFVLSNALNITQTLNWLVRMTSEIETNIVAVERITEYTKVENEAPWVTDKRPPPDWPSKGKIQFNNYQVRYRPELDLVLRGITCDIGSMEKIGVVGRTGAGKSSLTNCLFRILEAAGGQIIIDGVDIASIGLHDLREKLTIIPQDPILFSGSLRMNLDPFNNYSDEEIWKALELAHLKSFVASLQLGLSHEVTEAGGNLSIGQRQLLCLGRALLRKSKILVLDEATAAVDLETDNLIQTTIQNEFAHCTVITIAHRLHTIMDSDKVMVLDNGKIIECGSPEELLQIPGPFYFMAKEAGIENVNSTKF

Cmax [1, 8]: 1320 ± 710 nM | Tmax ([1]; FVB, mouse, whole blood, po, 20 mg/kg, Tmax, WT with curcumin, oral resveratrol 20mg/kg): 18.6 ± 7.2 min | half-life ([1]; FVB, mouse, whole blood, po, 20 mg/kg, t1/2, WT control, oral resveratrol 20mg/kg without curcumin): 226 ± 104 min | half-life ([1]; FVB, mouse, whole blood, po, 20 mg/kg, t1/2, WT with curcumin, oral resveratrol 20mg/kg): 559 ± 338 min | Cmax ([2]; Bcrp1 (−/−) with curcumin): 1800 ± 170 nM | Cmax ([2]; Bcrp1 (−/−) without curcumin): 2400 ± 980 nM | Tmax ([2]; Bcrp1 (−/−) with curcumin): 15 min | Tmax ([2]; Bcrp1 (−/−) without curcumin): 15 min | half-life ([2]; t1/2, Bcrp1 (−/−) with curcumin): 349 ± 153 min | half-life ([2]; t1/2, Bcrp1 (−/−) without curcumin): 265 ± 26.4 min
Structure (SMILES): O=S(=O)(O)Oc1cc(O)cc(C=Cc2ccc(O)cc2)c1 [R-3-S, resveratrol-3-O-sulfate]
peak plasma levels relative to that of resveratrol [3]: 3- to 8 fold

Cmax [1, 8]: 600 ± 260 nM | increase of AUC with curcumin [1, 9]: 2 fold | increase of maximum blood concentration (Cmax) with curcumin [1, 9]: ~100% | Cmax ([2]; Bcrp1 (−/−) with curcumin): 390 ± 170 nM | Cmax ([2]; Bcrp1 (−/−) without curcumin): 790 ± 440 nM | Tmax ([2]; Bcrp1 (−/−) without curcumin): 18.6 ± 7.2 min | change in AUC with curcumin ([2]; curcumin-treated vs curcumin-untreated Bcrp1 (−/−) mice): decreased moderately
Structure (SMILES): Oc1ccc(/C=C/c2cc(O)cc(O)c2)cc1 [Resveratrol, trans-3,5,4′-trihydroxystilbene]

decrease of CL of RES-3-O-G (BCRP [5]; [10]): 28% | decrease of CL of RES-3-O-S (BCRP [5]; [11]): 35% | inhibitory effect on CL at higher concentration (BCRP [5]; curcumin 100nM vs 50nM): no greater extent of inhibitory effect | reduction of CL of RES-3-O-G (human MRP2; curcumin 50nM, resveratrol […], 4 h, p<0.001): 46% | reduction of CL of RES-4′-O-G (human MRP2; [10]): 50% | reduction of CL of RES-3-O-S (human MRP2; [11]): 53% | reduction of CL of RES-4′-O-S (human MRP2; [11]): 54%
Structure (SMILES): COc1cc(/C=C/C(=O)CC(=O)/C=C/c2ccc(O)c(OC)c2)ccc1O [curcumin, diferuoyl methane]
inhibitory effect on CL of RES-4′-G (BCRP [5]; curcumin 100nM, 50nM, resveratrol […], 4 h): did not show any significant inhibitory effect | inhibitory effect on CL at higher concentration (human MRP2; curcumin 100nM vs 50nM): no greater concentration-dependent inhibitory effect | decrease in fmet of RES-4′-O-G ([6]; curcumin 200nM, p<0.05): ~20% | reduction in fmet of RES-3-O-G ([6]; curcumin 200nM, p>0.05): ~12% | decrease in fmet of RES-4′-O-G ([6]; curcumin 500nM, p<0.01): approximately 24% | reduction in fmet of RES-3-O-G ([6]; curcumin 500nM, p<0.05): ~14% | decrease in fmet of RES-4′-O-G ([6]; curcumin 1000nM, p<0.01): about 33% | reduction in fmet of RES-3-O-G ([6]; curcumin 1000nM, p<0.05): approximately 24% | change in fmet values for all metabolites ([6]; lower concentrations of curcumin (100nM, 50nM)): no significant change

Further lines, the compound ahead of its results:

Structure (SMILES): O=C(O)c1cc(/N=N/c2ccc(S(=O)(=O)Nc3ccccn3)cc2)ccc1O [SASP, sulfasalazine]
plasma level in mice pretreated with curcumin (BCRP [4]): two folds higher

Structure (SMILES): O=C(O)[C@H]1O[C@@H](Oc2ccc(/C=C/c3cc(O)cc(O)c3)cc2)[C@H](O)[C@@H](O)[C@@H]1O [RES-4′-O-G, resveratrol-4′-O-glucuronide]
IC50 of cell growth inhibition compared to parent compound (colon cancer cell lines): comparable | amount of metabolite generated relative to the 3-O conjugate [7]: about one fifth | peak plasma levels relative to that of resveratrol [3]: 3- to 8 fold

Structure (SMILES): O=C(O)[C@H]1O[C@@H](Oc2cc(O)cc(/C=C/c3ccc(O)cc3)c2)[C@H](O)[C@@H](O)[C@@H]1O [R-3-G, resveratrol-3-O-glucuronide]
IC50 of cell growth inhibition compared to parent compound (colon cancer cell lines): comparable
